Experimental data published in ChEMBL document CHEMBL5226325, “Optimization of a Screening Hit toward M2912, an Oral Tankyrase Inhibitor with Antitumor Activity in Colorectal Cancer Models” (J Med Chem, 2021).
The source made the active and inactive calls. No cut-off for these calls is given here.

How the values were obtained:
HT55 [1] = assay: Cytotoxicity against human HT55 cells assessed as reduction in cell growth incubated for 14 days by resazurin dye based assay; assay type: functional; conditions: time 14.0 day
[2] = In vivo inhibition of Wnt pathway in Hsd athymic nude mouse xenografted with human DLD1 cells assessed as increase in tankyrase protein level in tumor at 10 to 30 mg/kg, po administered as single dose and measured after 2 to 8 hrs; assay type: functional, organism-based; conditions: DLD-1, dose 10-30 mg/kg, time 2-8 hrs
HCT-15 = assay: Cytotoxicity against human HCT-15 cells assessed as reduction in cell growth at 0.01 to 10 uM incubated for 14 days by resazurin dye based assay; assay type: functional; conditions: dose 0.01-10 µM, time 14.0 day
[3] = molecular target: Protein mono-ADP-ribosyltransferase PARP8 (Homo sapiens, UniProt Q8N3A8); assay: Inhibition of human PARP8 by chemiluminescence assay
SW-620 = assay: Cytotoxicity against human SW620 cells assessed as reduction in cell growth at 0.01 to 10 uM incubated for 14 days by resazurin dye based assay; assay type: functional; conditions: dose 0.01-10 µM, time 14.0 day
[4] = Half life in mouse; assay type: ADME, organism-based; conditions: in vivo
[5] = molecular target: Poly [ADP-ribose] polymerase 2 (Homo sapiens, UniProt Q9UGN5); assay: Inhibition of N-terminal GST-tagged human recombinant PARP2 (2 to 583 residues) expressed in baculovirus infected Sf9 insect cells by chemiluminescence assay
[6] = In vivo inhibition of Wnt pathway in Hsd athymic nude mouse xenografted with human DLD1 cells assessed as increase in axin2 protein level in tumor at 10 to 30 mg/kg, po administered as single dose and measured after 2 to 8 hrs; assay type: functional, organism-based; conditions: DLD-1, dose 10-30 mg/kg, time 2-8 hrs
[7] = Oral bioavailability in dog; assay type: ADME, organism-based, Canis lupus familiaris; conditions: in vivo
COLO 320 = assay: Antitumor activity against human COLO 320 cells xenografted in CB17-SCID mouse assessed as tumor growth inhibition at 20 mg/kg, po, administered twice daily via gavage and measured twice weekly; assay type: functional, organism-based
[8] = Hepatic blood flow in human; assay type: ADME
[9] = Toxicity in mouse assessed as histopathological changes in gastrointestinal tract at 50 mg/kg, po administered twice daily via gavage; assay type: organism-based; conditions: in vivo
[10] = Volume of distribution at steady state in monkey; assay type: ADME, Macaca mulatta; conditions: rhesus monkey, in vivo; read-out: Vdss
[11] = Half life in human; assay type: ADME
[12] = molecular target: T1, Poly [ADP-ribose] polymerase tankyrase-2 (Homo sapiens, UniProt Q9H2K2); assay: Inhibition of TNKS2 (unknown origin)
T1 sequence (Q9H2K2 whole entry): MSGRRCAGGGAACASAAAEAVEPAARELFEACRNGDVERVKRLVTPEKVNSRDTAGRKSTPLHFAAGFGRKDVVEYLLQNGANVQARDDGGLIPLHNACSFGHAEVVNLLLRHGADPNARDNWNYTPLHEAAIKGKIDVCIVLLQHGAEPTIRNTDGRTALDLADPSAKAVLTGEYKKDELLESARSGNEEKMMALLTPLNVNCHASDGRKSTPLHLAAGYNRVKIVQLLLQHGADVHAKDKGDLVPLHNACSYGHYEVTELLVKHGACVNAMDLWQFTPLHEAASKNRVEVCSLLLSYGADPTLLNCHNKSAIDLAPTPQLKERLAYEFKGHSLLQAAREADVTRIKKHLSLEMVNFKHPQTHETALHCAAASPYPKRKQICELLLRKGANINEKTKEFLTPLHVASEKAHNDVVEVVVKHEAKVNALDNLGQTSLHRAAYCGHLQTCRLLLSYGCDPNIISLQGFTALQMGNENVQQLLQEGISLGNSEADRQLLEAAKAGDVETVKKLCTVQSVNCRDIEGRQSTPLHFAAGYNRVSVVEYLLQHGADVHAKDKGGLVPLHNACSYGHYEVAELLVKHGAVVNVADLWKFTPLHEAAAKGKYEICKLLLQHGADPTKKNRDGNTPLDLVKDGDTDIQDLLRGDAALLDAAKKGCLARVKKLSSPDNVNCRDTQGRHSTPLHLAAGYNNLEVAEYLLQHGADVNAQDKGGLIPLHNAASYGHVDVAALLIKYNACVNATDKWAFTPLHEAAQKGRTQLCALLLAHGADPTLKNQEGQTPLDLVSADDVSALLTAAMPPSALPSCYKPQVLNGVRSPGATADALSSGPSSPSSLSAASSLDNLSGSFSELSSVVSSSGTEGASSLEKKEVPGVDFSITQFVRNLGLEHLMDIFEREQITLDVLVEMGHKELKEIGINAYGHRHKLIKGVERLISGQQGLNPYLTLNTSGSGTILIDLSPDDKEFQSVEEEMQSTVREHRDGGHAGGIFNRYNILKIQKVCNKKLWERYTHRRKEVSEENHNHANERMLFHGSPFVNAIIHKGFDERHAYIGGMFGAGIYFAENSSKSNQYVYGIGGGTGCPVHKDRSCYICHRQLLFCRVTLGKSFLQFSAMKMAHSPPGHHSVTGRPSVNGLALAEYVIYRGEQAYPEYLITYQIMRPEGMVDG

[13] = Toxicity in CB17-SCID mouse xenografted with human COLO 320 cells assessed as reduction in body weight at 20 mg/kg, po administered twice daily via gavage for 20 days and measured twice weekly; assay type: organism-based; conditions: in vivo, 480 h, time 20 day
[14] = Toxicity in […] xenografted with human HT55 cells assessed as reduction in body weight at 20 mg/kg, po administered twice daily via gavage for 20 days and measured twice weekly; assay type: organism-based; conditions: in vivo, 480 h, time 20 day
[15] = In vivo inhibition of Wnt pathway in Hsd athymic nude mouse xenografted with human DLD1 cells assessed as increase in axin2 protein level in tumor at 10 to 30 mg/kg, po administered as single dose and measured after 18 hrs; assay type: functional, organism-based; conditions: DLD-1, dose 10-30 mg/kg
[16] = molecular target: Poly [ADP-ribose] polymerase tankyrase-1 (Homo sapiens) (UniProt O95271); assay: Inhibition of tankyrase-mediated auto-PARsylation in human DLD-1 cells assessed as increase in tankyrase accumulation incubated for 24 hrs; assay type: cell-based
HT55 [17] = assay: Antitumor activity against human HT55 cells xenografted in CD-1 nude mouse assessed as tumor growth inhibition at 20 mg/kg, po, administered twice daily via gavage and measured twice weekly; assay type: functional, organism-based
[18] = molecular target: Protein mono-ADP-ribosyltransferase PARP3 (Homo sapiens, UniProt Q9Y6F1); assay: Inhibition of N-terminal GST-fused human recombinant PARP3 (2 to 540 residues) expressed in Sf9 insect cells by chemiluminescence assay
[19] = Half life in dog; assay type: ADME, Canis lupus familiaris; conditions: in vivo
[20] = In vivo inhibition of Wnt pathway in Hsd athymic nude mouse xenografted with human DLD1 cells assessed as increase in tankyrase protein level in tumor at 10 to 30 mg/kg, po administered as single dose and measured after 18 hrs; assay type: functional, organism-based; conditions: DLD-1, dose 10-30 mg/kg
[21] = Volume of distribution at steady state in mouse; assay type: ADME, organism-based; conditions: in vivo, read-out: Vdss
[22] = In vivo inhibition of Wnt pathway in Hsd athymic nude mouse xenografted with human DLD1 cells assessed as reduction in beta-catenin level in tumor at 10 to 30 mg/kg, po administered as single dose and measured after 8 hrs; assay type: functional, organism-based; conditions: DLD-1, dose 10-30 mg/kg
[23] = Unbound fraction in human plasma; assay type: ADME, cell-free
[24] = Toxicity in CD-1 nude mouse xenografted with human HT55 cells assessed as drug tolerance at 15 mg/kg, po administered twice daily via gavage for 20 days; assay type: organism-based; conditions: in vivo, 480 h, time 20 day

Sequence of Protein mono-ADP-ribosyltransferase PARP3 (Q9Y6F1 whole entry, the tested form may be a part): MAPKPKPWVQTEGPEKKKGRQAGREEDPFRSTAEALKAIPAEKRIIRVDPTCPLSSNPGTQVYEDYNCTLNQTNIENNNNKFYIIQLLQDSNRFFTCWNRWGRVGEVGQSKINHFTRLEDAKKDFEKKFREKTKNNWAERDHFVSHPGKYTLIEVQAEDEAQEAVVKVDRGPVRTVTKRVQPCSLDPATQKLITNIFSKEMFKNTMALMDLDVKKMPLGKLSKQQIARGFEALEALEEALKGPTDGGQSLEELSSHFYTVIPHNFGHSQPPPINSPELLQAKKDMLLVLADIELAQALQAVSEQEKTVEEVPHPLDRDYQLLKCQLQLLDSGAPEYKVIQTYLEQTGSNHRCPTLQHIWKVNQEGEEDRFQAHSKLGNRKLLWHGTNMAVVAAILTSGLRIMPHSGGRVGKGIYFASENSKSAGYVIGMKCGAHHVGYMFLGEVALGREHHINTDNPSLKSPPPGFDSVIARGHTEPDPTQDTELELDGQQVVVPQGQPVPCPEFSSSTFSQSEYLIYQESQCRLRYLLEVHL
Sequence of Poly [ADP-ribose] polymerase 2 (Q9UGN5 whole entry, the tested form may be a part): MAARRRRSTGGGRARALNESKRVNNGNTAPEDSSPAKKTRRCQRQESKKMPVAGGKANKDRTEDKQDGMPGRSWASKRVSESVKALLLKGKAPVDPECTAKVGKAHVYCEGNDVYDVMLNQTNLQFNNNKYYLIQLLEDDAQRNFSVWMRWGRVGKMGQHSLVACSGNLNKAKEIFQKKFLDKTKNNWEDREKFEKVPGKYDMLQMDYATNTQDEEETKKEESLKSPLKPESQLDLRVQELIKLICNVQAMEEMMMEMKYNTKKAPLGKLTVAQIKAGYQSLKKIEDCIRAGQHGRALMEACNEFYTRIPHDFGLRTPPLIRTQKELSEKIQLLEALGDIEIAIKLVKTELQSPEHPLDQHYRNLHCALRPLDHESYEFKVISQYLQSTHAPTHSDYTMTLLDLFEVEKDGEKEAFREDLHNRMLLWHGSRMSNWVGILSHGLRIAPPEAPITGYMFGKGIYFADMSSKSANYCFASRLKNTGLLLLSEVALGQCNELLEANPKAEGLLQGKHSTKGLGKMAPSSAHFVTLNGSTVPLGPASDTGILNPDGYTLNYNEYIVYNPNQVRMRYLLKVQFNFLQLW
Sequence of Protein mono-ADP-ribosyltransferase PARP8 (Q8N3A8 whole entry): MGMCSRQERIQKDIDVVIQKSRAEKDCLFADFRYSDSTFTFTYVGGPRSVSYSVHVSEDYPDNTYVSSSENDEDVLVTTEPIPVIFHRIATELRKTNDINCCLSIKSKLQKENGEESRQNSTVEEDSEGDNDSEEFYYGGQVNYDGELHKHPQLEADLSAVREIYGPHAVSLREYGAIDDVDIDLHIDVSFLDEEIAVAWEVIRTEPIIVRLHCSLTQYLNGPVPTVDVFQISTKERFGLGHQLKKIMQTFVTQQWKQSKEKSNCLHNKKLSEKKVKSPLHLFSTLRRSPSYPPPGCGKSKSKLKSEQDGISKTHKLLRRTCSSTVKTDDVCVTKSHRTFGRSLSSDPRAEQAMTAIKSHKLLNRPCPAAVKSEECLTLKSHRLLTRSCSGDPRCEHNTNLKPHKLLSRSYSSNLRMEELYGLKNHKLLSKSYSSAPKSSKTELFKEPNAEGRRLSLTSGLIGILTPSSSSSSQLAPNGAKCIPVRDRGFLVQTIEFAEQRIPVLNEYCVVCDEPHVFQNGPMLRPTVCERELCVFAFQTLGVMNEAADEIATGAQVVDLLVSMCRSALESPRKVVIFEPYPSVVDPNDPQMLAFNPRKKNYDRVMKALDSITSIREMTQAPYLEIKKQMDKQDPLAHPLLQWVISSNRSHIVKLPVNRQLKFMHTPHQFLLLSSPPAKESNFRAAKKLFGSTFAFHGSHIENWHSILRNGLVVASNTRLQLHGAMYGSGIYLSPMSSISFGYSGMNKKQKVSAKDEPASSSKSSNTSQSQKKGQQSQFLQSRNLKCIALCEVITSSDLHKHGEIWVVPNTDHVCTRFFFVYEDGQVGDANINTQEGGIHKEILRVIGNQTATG
Sequence of Poly [ADP-ribose] polymerase tankyrase-1 (Homo sapiens) (O95271 whole entry): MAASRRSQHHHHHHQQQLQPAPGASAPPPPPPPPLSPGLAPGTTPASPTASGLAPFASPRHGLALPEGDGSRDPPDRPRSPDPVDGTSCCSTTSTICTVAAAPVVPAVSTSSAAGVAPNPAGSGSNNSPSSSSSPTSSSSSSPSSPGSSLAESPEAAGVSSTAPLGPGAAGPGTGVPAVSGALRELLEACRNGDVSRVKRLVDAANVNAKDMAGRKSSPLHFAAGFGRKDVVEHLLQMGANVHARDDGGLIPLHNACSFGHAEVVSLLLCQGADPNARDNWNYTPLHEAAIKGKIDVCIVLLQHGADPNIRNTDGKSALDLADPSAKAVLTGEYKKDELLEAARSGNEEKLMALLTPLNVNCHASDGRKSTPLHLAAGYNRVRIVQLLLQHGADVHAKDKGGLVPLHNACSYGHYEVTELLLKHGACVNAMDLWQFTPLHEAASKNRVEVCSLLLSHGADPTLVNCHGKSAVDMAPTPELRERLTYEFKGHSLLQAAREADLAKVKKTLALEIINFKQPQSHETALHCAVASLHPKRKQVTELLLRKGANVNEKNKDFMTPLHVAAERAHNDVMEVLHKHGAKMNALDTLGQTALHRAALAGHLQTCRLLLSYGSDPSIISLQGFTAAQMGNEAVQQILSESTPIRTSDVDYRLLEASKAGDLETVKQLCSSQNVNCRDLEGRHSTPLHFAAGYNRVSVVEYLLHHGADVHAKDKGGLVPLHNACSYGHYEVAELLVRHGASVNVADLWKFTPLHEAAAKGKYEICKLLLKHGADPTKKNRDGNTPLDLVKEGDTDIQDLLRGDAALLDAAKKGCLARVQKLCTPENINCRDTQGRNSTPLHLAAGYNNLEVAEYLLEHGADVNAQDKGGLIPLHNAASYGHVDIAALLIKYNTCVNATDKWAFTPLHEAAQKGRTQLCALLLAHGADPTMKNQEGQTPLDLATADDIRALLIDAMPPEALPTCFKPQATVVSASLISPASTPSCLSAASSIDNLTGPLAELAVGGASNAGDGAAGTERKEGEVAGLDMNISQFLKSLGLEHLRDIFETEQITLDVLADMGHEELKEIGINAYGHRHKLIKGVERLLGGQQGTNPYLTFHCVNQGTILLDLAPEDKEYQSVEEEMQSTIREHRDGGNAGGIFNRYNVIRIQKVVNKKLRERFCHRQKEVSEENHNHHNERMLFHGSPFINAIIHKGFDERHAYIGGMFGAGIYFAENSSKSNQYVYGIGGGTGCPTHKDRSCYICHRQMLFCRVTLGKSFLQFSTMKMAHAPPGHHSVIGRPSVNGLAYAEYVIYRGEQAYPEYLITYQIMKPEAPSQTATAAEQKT

- IC50 [3]: 1300 nM
- half-life [4]: 58.6 min
- IC50 [5]: 200 nM
- bioavailability [7]: 37%
- QH [8]: 17%
- Vd [10]: 3.15 L/kg
- half-life [11]: 414 min
- IC50 [12]: 1.4 nM
- inhibition [16]: Active
- IC50 [18]: 110 nM
- half-life [19]: 35.6 min
- Vd [21]: 2.43 L/kg
- fraction unbound [23]: 0.096
SMILES: Cc1ccc2c(=O)[nH]c(-c3ccc(C(C)(C)O)cc3)cn12
- Activity (HT55 [1]): Dose-Dependent Effect
- inhibition [2]: Active
- Activity (HCT-15): inactive
- Activity (SW-620): inactive
- inhibition [6]: Active
- Activity (COLO 320): Active
- Activity [9]: Toxic
- Activity [13]: Non-Toxic
- Activity [14]: Non-Toxic
- inhibition [15]: inactive
- Activity (HT55 [17]): Active
- inhibition [20]: inactive
- inhibition [22]: Active
- Activity [24]: Non-Toxic
